Columns and labels:
Assay type in all cases: cell-based
[1] = system: Bifidobacterium infantis strain JCM1222; test: cholic acid uptake by Bifidobacterium infantis strain JCM1222 in a nystose added-cell suspension
Description: (§1) Lactic acid bacteria were cultured in a commercially available MRS medium overnight. The composition of the medium was as follows:
(§2) The harvested cells were washed with a buffer (pH 7.0) of 50 mM potassium phosphate containing 1 mM magnesium sulfate, and then the washed cells were re-suspended in a buffer comprising the same composition. The resulting cell suspension was allowed to stand for 30 minutes to make the cell membrane of the cells the state of deactivation. Then, the cells were harvested by centrifuging the suspension and washed with a buffer (pH 7.0) of 50 mM potassium phosphate containing 1 mM magnesium sulfate. […]
(§3) To 96 μl of the cell suspension prepared as above, 2 μl of 6 mM cholic acid solution (cholic acid (chenodeoxycholic acid) labeled with ^14C, 16 mCi/mmol) was added, and after allowing the resulting suspension to stand for 15 minutes, 0.1 μl of 0.33 M oligosaccharide solution was added thereto, and the measurement of the activity of bile acid uptake was started. After a predetermined time, the reaction was stopped by adding 3 ml of a buffer of 100 mM potassium phosphate containing 100 mM […], and then the reaction solution was filtered through a cellulose acetate membrane (pore size: 0.45 μm), and the radioactivity left on the membrane was measured by a scintillation counter. […]

[2] = system: Lactobacillus salivarius ssp. salicinius strain JCM1044; test: activity of cholic acid uptake by Lactobacillus salivarius ssp. salicinius strain JCM1044 in the presence of an oligosaccharide; settings: 14C-labeled cholic acid; oligosaccharide added at 15 minutes after reaction start; control without oligosaccharide unchanged
Description: as §1, §2, §3

[3] = system: Bifidobacterium breve strain JCM1192; test: activity of cholic acid uptake by Bifidobacterium breve strain JCM1192 in the presence of an oligosaccharide; settings: 14C-labeled cholic acid; oligosaccharide added at 15 minutes after reaction start; control without oligosaccharide unchanged
Description: as §1, §2, §3

[4] = system: Bifidobacterium breve strain JCM1192; test: activity of chenodeoxycholic acid uptake by Bifidobacterium breve strain JCM1192 in the presence of an oligosaccharide; settings: for chenodeoxycholic acid concentration in the cells relative to that of the outside of the cells: 14C-labeled chenodeoxycholic acid, oligosaccharide added at 15 minutes after reaction start, maximum rise
Description: as §1
The harvested cells were washed with a buffer (pH 7.0) of 50 mM potassium phosphate containing 1 mM magnesium sulfate, and then the washed cells were re-suspended in a buffer comprising the same composition. The resulting cell suspension was allowed to stand for 30 minutes to make the cell membrane of the cells the state of deactivation. Then, the cells were harvested by centrifuging the suspension and washed with a buffer (pH 7.0) of 50 mM potassium phosphate containing 1 mM magnesium sulfate. Thereafter, the washed cells were re-suspended in a buffer comprising the same composition, and the cell suspension was adjusted so as to have the turbidity of 10.
To 96 μl of the cell suspension prepared as above, 2 μl of 6 mM cholic acid solution (cholic acid (chenodeoxycholic acid) labeled with ^14C, 16 mCi/mmol) was added, and after allowing the resulting suspension to stand for 15 minutes, 0.1 μl of 0.33 M oligosaccharide solution was added thereto, and the measurement of the activity of bile acid uptake was started. After a predetermined time, the reaction was stopped by adding 3 ml of a buffer of 100 mM potassium phosphate containing 100 mM […], and then the reaction solution was filtered through a cellulose acetate membrane (pore size: 0.45 μm), and the radioactivity left on the membrane was measured by a scintillation counter. In addition, as a control, the radioactivity of a sample adding no oligosaccharide was measured similarly.

| SMILES | cholic acid incorporation into the cells [1] | cholic acid concentration in the cells relative to that of the outside of the cells [2] | cholic acid concentration in the cells relative to that of the outside of the cells [3] | chenodeoxycholic acid concentration in the cells relative to that of the outside of the cells [4] | chenodeoxycholic acid concentration in the cells relative to outside at equilibrium after passive elimination ([4]; after oligosaccharide almost consumed (after 30 minutes), concentration came to equilibrium) |
| --- | --- | --- | --- | --- | --- |
| OC[C@H]1O[C@@](CO)(OC[C@@]2(OC[C@@]3(O[C@H]4O[C@H](CO)[C@@H](O)[C@H](O)[C@H]4O)O[C@H](CO)[C@@H](O)[C@@H]3O)O[C@H](CO)[C@@H](O)[C@@H]2O)[C@@H](O)[C@@H]1O [nystose] | cholic acid was incorporated into the cells | – | – | – | – |
| OC[C@H]1O[C@@](CO)(OC[C@@]2(O[C@H]3O[C@H](CO)[C@@H](O)[C@H](O)[C@H]3O)O[C@H](CO)[C@@H](O)[C@@H]2O)[C@@H](O)[C@@H]1O [1-kestose] | – | about 13 times | about 24 times | about 15 times | about 2 times |
| OC[C@H]1O[C@H](OC[C@H]2O[C@H](O[C@]3(CO)O[C@H](CO)[C@@H](O)[C@@H]3O)[C@H](O)[C@@H](O)[C@@H]2O)[C@H](O)[C@@H](O)[C@H]1O [raffinose] | – | about 8 times | about 30 times | about 6 times | – |

Source: patent US20040208859A1, “Bile acid absorbent/adsorbent” (priority 2001, published 2004)
